Experimental data as given in patent publication US20210023089A1, “Compositions Useful for Treating Herpes Simplex Keratitis, and Methods Using Same” (priority 2013, published 2021).

Legend:
cleaved caspase-3 = test: Cleaved caspase-3 immunofluorescence in HSV-1 infected explanted human corneas; format: cell-based; details: 10 μM, 48 hpi, vs mock-treated
Description: Human corneas were obtained from the Lions Eye Bank of Delaware Valley. Rabbit corneas were excised from intact fresh eyeballs of young (8-12 weeks) albino rabbits (Pel-Freez Biologicals, Rogers, Ark.). Protocol (Alekseev et al., 2012, J Vis Exp 69:e3631) for ex vivo corneal culture, infection, and treatment was followed closely. Briefly, corneoscleral buttons were excised and rinsed in PBS containing 200 U/mL penicillin and 200 μg/mL streptomycin. The endothelial concavity was filled with culture medium containing 1% low melting temperature agarose. The corneas were cultured epithelial side up in MEM medium supplemented with nonessential amino acids (1×), 2 mM […], 200 U/mL penicillin, and 200 μg/mL streptomycin. The next day, they were infected with 1×10^4 plaque forming units (PFU)/cornea of strain KOS HSV-1 for 1 hour, rinsed, and overlaid with fresh medium. Drug treatments were administered at the same concentrations as for cultured cells. For KU-55933 bioavailability assessment, corneas were treated with bleomycin (200 μg/mL) for 1 hour. The epithelial cell layer was collected by scraping to isolate DNA or protein. […] Treatment toxicity was assessed by briefly staining the cornea with fluorescein (1% wt/vol in PBS) and imaging the epithelial defects with 464-nm wavelength blue light (LDP LLC, Carlstadt, N.J.). […]

HSV-1 = test: qPCR of viral genome replication in HSV-1 infected HCE cells; format: cell-based, HSV-1 (KOS strain); details: MOI 0.1, inhibitor 10 μM
Description: All cells were cultured at 37° C. and 5% CO2, and supplemented with 100 U/ml penicillin and 100 μg/ml streptomycin. Human corneal epithelial cells immortalized with hTERT (hTCEpi; Bahassi et al., 2008, Oncogene 27:3977-3985) were grown in complete KGM-2 medium. Human corneal epithelial cells immortalized with SV40 large T antigen (HCE; Araski-Sasaki et al., 1995, Invest. Ophthalmol. Visual Sci. 36:614-621), as well as African green monkey kidney fibroblasts (CV-1; Jensen et al., 1964, Proc. Natl. Acad. Sci. USA 52:53-59), were grown in DMEM medium supplemented with 10% FBS. KOS strain (Smith, Proc. Soc. Exp. Biol. Med. Soc. Exp. Biol. Med. 115:814-816) of HSV-1 was used in all infections. All viral stocks were titered on CV-1 monolayers.
Tetracyline-inducible Chk2 knockdown cell line was derived by lentivirally transducing HCE cells with a construct harboring shRNA sequence against the Chk2 transcript. The Chk2 shRNA sequence was acquired from Sigma (NM_007194.2-129951c1) and targets the following region: 5′-[…]-3′ (SEQ ID NO:1). Lentiviral particles were produced in 293T packaging cells (Dull et al., 1998, J. Virol. 72:8463-8471). […]
Total DNA from infected cells and corneas was isolated using the DNeasy Blood & Tissue Kit (QIAGEN, Hilden, Germany). Real time quantitative PCR was performed with SYBR Green (Bio-Rad, Hercules, Calif.). […]

Compound	cleaved caspase-3 staining (apoptosis) in corneal epithelium (cleaved caspase-3)	viral genome replication (qPCR) (HSV-1)
O=c1cc(-c2cccc3c2Sc2ccccc2S3)oc(N2CCOCC2)c1 [KU-55933, 2-(morpholin-4-yl)-6-(thianthren-1-yl)-pyran-4-one]	reduction	–
NC(=O)c1ccc2[nH]c(-c3ccc(Oc4ccc(Cl)cc4)cc3)nc2c1 [Chk2 inhibitor II, 2-(4-(4-chlorophenoxy)phenyl)-1H-benzimidazole-5-carboxamide]	abrogated	profoundly reduced
